Among the data in patent publication US12018024B2, “Compounds and compositions for the treatment of cryptosporidiosis” (Novartis AG, priority 2020, dated 2024) are IC50 and EC50 values, retold here.

The target of one experiment is C. parvum PI(4)K (Cryptosporidium parvum, UniProt Q5CVD3). The experiment in a line: CpPI(4)K enzymatic assay (Transcreener ADP2 FP). Format: biochemical. An excerpt:
Baculovirus expression and purification of C. parvum phosphatidylinositol 4-kinase: The full-length coding sequence of C. parvum PI(4)K (cgd8_4500, 1114 amino acids) was codon-optimized for baculovirus expression, synthesized and cloned into pFastBac-HTb (Invitrogen 10584-027) in frame with the amino-terminal polyhistidine tag using the BamHI and HindIII restriction sites. Recombinant pFastBacHTb-CpPI(4)K bacmid clones were generated by site-specific transposition in E. coli DH10Bac (Invitrogen 10361-012). The bacmid sequence was confirmed by direct DNA sequencing to confirm a lack of mutations across the whole gene. The subsequent steps for bacmid isolation, transfection and selection of the recombinant viruses were performed according to the manufacturer's protocol (Bac-to-Bac system #10359, Invitrogen).
SF9 cells, cultured in […] serum-free medium, were transfected with recombinant baculovirus at 1/200 (v/v) and incubated at 27° C. for 72 h. The pellets were collected after centrifugation and re-suspended in cell lysis buffer (20 mM Tris-HCl, pH 7.5, 300 mM NaCl, 1 mM DTT, 20 mM imidazole, 0.01% Triton X-100 and 1× complete protease inhibitor cocktail without EDTA (Roche Diagnostics 04693116001)). The cell suspension was lysed by sonication and the clarified supernatant was loaded onto a 1 ml HisTrap affinity column (GE Healthcare) pre-equilibrated with buffer A (20 mM Tris-HCl, pH 7.5, 300 mM NaCl, 1 mM DTT, 20 mM Imidazole, and 1× complete protease inhibitor cocktail without EDTA). The column was washed with buffer B (buffer A containing 45 mM imidazole) and the bound protein of interest was eluted with buffer C (buffer A with 90 mM imidazole). The fractions containing CpPI(4)K were pooled, concentrated using Amicon Ultra-15 and purified by a gel-filtration column (Hi-Load 26/60 Superdex 200, GE Healthcare) equilibrated with 20 mM Tris, pH 7.5, 300 mM NaCl, 1 mM DTT and 1× protease inhibitor cocktail without EDTA. The concentrations of the purified protein (Mw 132.39 kda) was determined by using the protein molar extinction coefficient (ε280 nm=133,810 M^−1 cm^−1). Aliquots were flash frozen in liquid nitrogen and immediately stored at −80° C.
PI(4)K enzymatic Assay The CpPI(4)K enzymatic assay was performed as described earlier with a some modifications (McNamara et al., 2013). Briefly, L-α-phosphatidylinositol (Avanti Polar Lipid 840046), dissolved in 3% n-octylglucoside (Roche Diagnostics 10634425001), was used as the lipid substrate for the PI(4)K activity assay. CpPI(4)K was assayed using Transcreener ADP2 FP detection kit (BellBrook 3010) in a black, solid 384-well plate (Corning 3575). The final assay volume was 10 μl and contained 3 nM of the respective CpPI(4)K construct in 10 mM Tris, pH 7.5, 1 mM DTT, 3 μM ATP, 5 mM Mn2+, 0.05% Triton X-100 and 10 μM phosphatidylinositol/octylglucoside. The enzyme reaction was performed for 50 minutes at room temperature and was stopped by adding 10 μl of detection mix containing 1× stop buffer (50 mM HEPES, pH7.5, 400 mM NaCl, 20 mM EDTA, and 0.02% Brij-35), 2 nM AMP Alexa Fluor 633 tracer, and 20 μg ml^−1 ADP antibody. Fluorescence polarization measurements were performed on the Infinite M1000 plate reader (Tecan) with λex=635 nm and λem=680 nm (20-nm bandwidth). IC50 values were calculated using Graphpad Prism software.

For a further experiment, the system named is Cryptosporidium parvum. Briefly: Cytopathic effect (CPE) based assay, C. parvum-infected HCT-8 cells. The format is cell-based. Conditions: HCT-8, 48 h, read-out: (b) C.p.* CPE EC50 (μM). The procedure: Human ileocecal colorectal adenocarcinoma cells (HCT-8 [HRT-18] ATCC, CCL-34) were maintained in T-175 flasks (Corning, 431080) in complete growth medium (RPMI-1640 medium (Gibco, 11875) supplemented with 10% heat-inactivated horse serum (Gibco, 26050), 1× MEM non-essential amino acids (Gibco, 11140), 10 mM HEPES (Gibco, 15630), 100 units/mL penicillin, and 100 units/mL streptomycin) at 37° C. and 5% CO2 in a humidified incubator. Cultures were passaged twice weekly using 10 mL of 1× Phosphate-Buffered Saline (PBS) without Ca^2+ and Mg^2+ (Gibco, 20012) for washing and 3-5 mL per T-175 flask of TrypLE Express Enzyme (Gibco, 12604) for dissociation of adherent cells.
Cryptosporidium parvum oocysts purchased from the Sterling Laboratory, University of Arizona (Iowa isolate) were purified from infected calf feces using discontinuous sucrose and cesium chloride centrifugation gradients and stored in PBS solution containing 0.01% Tween 20, 100 units/mL penicillin and 100 units/mL gentamicin.
Excystaion and infection: Excystation and infection protocols were developed following established methods with some modifications (Gut & Nelson, 1999, Upton et al., 1995, Bessoff et al., 2013). Briefly, oocysts were primed in 1 mL of 10 mM hydrochloric acid in 1× Hank's Balanced Salt Solution (HBSS) (Gibco, 14025) for 10 minutes with agitation at 1000 rpm, 37° C. on an Eppendorf thermomixer, then washed twice with 1 mL of room temperature non-acidic 1× HBSS by centrifugation at 13,000 rpm for 3 minutes at 25° C. Primed oocysts were further excysted at a concentration of 1×10^6 oocysts/μL in parasite infection medium consisting of a pre-warmed and pre-gassed 1:1 formulation of Leibovitz's L-15 medium (Gibco, 11415) and UltraCULTURE medium (Lonza, 12-725F) supplemented with 2 mM sodium taurocholate (Sigma, 86339-1), 10% heat-inactivated horse serum, and 200 μM L-ascorbic acid (Sigma, 95210) at 25° C. for 10 minutes. HCT-8 monolayer cells were infected with excysted cryptosporidium at a specified multiplicity of infection (MOI). All dilutions for subsequent assays were performed in parasite infection medium without sodium taurocholate. Pre-excysted oocysts were enumerated microscopically using a C-Chip disposable hemocytometer (NanoEnTek, DHC-N01).
Compound and assay plate preparation: Compound powders were dissolved in neat DMSO (Fisher, D4121) to 10 mM and stored at 4° C. prior to dilution into source plates. Dilutions were carried out using a Microlab STAR liquid handler (Hamilton) to obtain compound source plates containing the ten-point or eight-point three fold dilutions starting from 10 mM in duplicates. Source plates were stored at 4° C. prior to spotting into assay plates. Before administration, all compound source plates were equilibrated to room temperature. A specified volume of compounds from source plate were spotted to assay plate using an Echo Acoustic liquid handler (LABCYTE, 550) so that the final DMSO concentration was less than 0.5%. Each assay plate a specified number of DMSO-treated negative control wells and a well-studied potent active compound at 100 nM as positive control. As a quality control, all positive and negative-control wells were used to calculate a Z′-value and signal to noise ratio (S:N) for each plate.
Cryptosporidium spp are obligate-intracellular parasites that infect intestinal epithelial cells and the host cell is killed upon parasite egress. […] The loss of epithelial cells is due to both rapid parasite invasion/multiplication/egress and also pro-inflammatory immune response (Adams et al., 1994, Griffiths et al., 1994). We have observed a consistent cytopathic effect (CPE) in HCT-8 cells with C. spp infection the loss of viability of the host cells using CellTiter-Glo reagent.
Confluent HCT-8 cells in T-175 flasks were directly infected with excysted oocysts at an MOI (host to parasite) of 1:2 for C. parvum and 1:4 for C. hominis. […]
Background: Protection from cytopathic effect is a common read-out in antiviral testing.

The structures appear in SMILES notation.

Chain of C. parvum PI(4)K (Q5CVD3 entry or part of it): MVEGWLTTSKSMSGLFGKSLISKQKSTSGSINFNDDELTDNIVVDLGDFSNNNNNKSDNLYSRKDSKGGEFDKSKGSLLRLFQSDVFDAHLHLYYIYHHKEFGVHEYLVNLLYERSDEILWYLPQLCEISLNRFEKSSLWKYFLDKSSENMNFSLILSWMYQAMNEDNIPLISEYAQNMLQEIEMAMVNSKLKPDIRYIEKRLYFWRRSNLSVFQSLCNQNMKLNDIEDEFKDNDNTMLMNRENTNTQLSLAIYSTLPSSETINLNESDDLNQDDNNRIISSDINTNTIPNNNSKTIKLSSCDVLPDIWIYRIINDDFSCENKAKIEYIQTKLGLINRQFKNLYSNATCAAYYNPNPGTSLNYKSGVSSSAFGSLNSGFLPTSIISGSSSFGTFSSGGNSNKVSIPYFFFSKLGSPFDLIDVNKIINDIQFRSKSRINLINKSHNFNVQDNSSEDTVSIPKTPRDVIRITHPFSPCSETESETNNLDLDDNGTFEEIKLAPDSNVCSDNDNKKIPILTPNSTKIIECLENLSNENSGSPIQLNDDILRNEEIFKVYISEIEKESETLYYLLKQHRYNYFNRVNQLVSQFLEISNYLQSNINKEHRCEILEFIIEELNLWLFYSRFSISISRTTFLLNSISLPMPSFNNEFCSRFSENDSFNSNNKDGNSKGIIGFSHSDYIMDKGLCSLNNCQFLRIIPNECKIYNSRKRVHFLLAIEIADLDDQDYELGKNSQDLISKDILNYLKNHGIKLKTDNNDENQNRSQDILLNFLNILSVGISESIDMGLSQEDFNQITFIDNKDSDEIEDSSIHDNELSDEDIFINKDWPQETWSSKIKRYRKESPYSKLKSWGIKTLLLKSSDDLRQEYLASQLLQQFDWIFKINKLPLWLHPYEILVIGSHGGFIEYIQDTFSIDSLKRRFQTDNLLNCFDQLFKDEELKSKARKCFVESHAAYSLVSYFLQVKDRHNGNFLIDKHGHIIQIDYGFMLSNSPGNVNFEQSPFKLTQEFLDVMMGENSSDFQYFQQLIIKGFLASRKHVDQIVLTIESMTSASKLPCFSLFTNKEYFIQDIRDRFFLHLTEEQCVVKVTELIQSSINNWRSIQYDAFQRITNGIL

Regarding `CCOC(=O)c1cc(N(C)C(=O)c2ccn3ncc(-c4ccc(C(N)=O)cc4)c3c2)ccc1Cl` [Example 1.09, Ethyl 5-(3-(4-carbamoylphenyl)-N-methylpyrazolo[1,5-a]pyridine-5-carboxamido)-2-chlorobenzoate], the concentration for half-maximal inhibition (IC50) (as a rule, the concentration at which inhibition is half-maximal) at C. parvum PI(4)K was less than 100 nM. Also, in the experiment on Cryptosporidium parvum, the concentration giving a half-maximal response (EC50) – broadly, the concentration at which the effect is half-maximal – fell in the range of 0.1 to 1 µM.
For `COCCOC(=O)c1cc(N(C)C(=O)c2ccn3ncc(-c4ccc(C(N)=O)cc4)c3c2)ccc1Cl` [Example 1.11, 2-Methoxyethyl 5-(3-(4-carbamoylphenyl)-N-methylpyrazolo[1,5-a]pyridine-5-carboxamido)-2-chlorobenzoate], in that order: less than 100 nM and 0.1 to 1 µM.
At C. parvum PI(4)K, `CN(C)C(=O)COC(=O)c1cc(N(C)C(=O)c2ccn3ncc(-c4ccc(C(N)=O)cc4)c3c2)ccc1Cl` [Example 1.12, 2-(Dimethylamino)-2-oxoethyl 5-(3-(4-carbamoylphenyl)-N-methylpyrazolo[1,5-a]pyridine-5-carboxamido)-2-chlorobenzoate] returned a concentration for half-maximal inhibition (IC50) of less than 100 nM. In addition, the EC50 in the experiment with Cryptosporidium parvum was 0.1 to 1 µM.
Taken in the same sequence, the figures for `CN(C(=O)c1ccn2ncc(-c3ccc(C(N)=O)cc3)c2c1)c1ccc(Cl)c(C(=O)OCC2CCCO2)c1` (racemic) [Example 1.15, rac-(Tetrahydrofuran-2-yl)methyl 5-(3-(4-carbamoylphenyl)-N-methylpyrazolo[1,5-a]pyridine-5-carboxamido)-2-chlorobenzoate] were less than 100 nM and 0.1 to 1 µM.
For the molecule `CC(C)OC(=O)c1cc(N(C)C(=O)c2ccn3ncc(-c4ccc(C(N)=O)cc4)c3c2)ccc1Cl` [Example 1.13, Isopropyl 5-(3-(4-carbamoylphenyl)-N-methylpyrazolo[1,5-a]pyridine-5-carboxamido)-2-chlorobenzoate], the half-maximal inhibitory concentration (IC50) on C. parvum PI(4)K was less than 100 nM. For the same molecule, the EC50 in the experiment on Cryptosporidium parvum was in the range of 0.1 to 1 µM.
Taken in the same sequence, the figures for `CSCCOC(=O)c1cc(N(C)C(=O)c2ccn3ncc(-c4ccc(C(N)=O)cc4)c3c2)ccc1Cl` [Example 1.04, 2-(Methylthio)ethyl 5-(3-(4-carbamoylphenyl)-N-methylpyrazolo[1,5-a]pyridine-5-carboxamido)-2-chlorobenzoate] were less than 100 nM and more than 1 µM.
Molecule `COC(=O)COC(=O)c1cc(N(C)C(=O)c2ccn3ncc(-c4ccc(C(N)=O)cc4)c3c2)ccc1Cl` [Example 1.06, 2-Methoxy-2-oxoethyl 5-(3-(4-carbamoylphenyl)-N-methylpyrazolo[1,5-a]pyridine-5-carboxamido)-2-chlorobenzoate] displayed an IC50 against C. parvum PI(4)K of less than 100 nM. Moreover, in the experiment on Cryptosporidium parvum, the EC50 is more than 1 µM.
`CN(C(=O)c1ccn2ncc(-c3ccc(C(N)=O)cc3)c2c1)c1ccc(Cl)c(C(=O)OC(C)(C)C)c1` [Example 1.02, tert-Butyl 5-(3-(4-carbamoylphenyl)-N-methylpyrazolo[1,5-a]pyridine-5-carboxamido)-2-chlorobenzoate] had an IC50 at C. parvum PI(4)K of less than 100 nM. In addition, the EC50 with Cryptosporidium parvum is 0.1 to 1 µM.
In turn, `CNC(=O)c1ccc(-c2cnn3ccc(C(=O)N(C)c4ccc(OC(F)(F)F)c(C(=O)OC)c4)cc23)cc1` [Example 1.26, Methyl 5-(N-methyl-3-(4-(methylcarbamoyl)phenyl)pyrazolo[1,5-a]pyridine-5-carboxamido)-2-(trifluoromethoxy)benzoate] displayed an IC50 at C. parvum PI(4)K of less than 100 nM. The EC50 in the experiment on Cryptosporidium parvum was 0.1 to 1 µM.
As for `CN(C(=O)c1ccn2ncc(-c3ccc(C(N)=O)cc3)c2c1)c1ccc(Cl)c(C(=O)OCC(F)(F)F)c1` [Example 1.10, 2,2,2-Trifluoroethyl 5-(3-(4-carbamoylphenyl)-N-methylpyrazolo[1,5-a]pyridine-5-carboxamido)-2-chlorobenzoate], the IC50 at C. parvum PI(4)K is less than 100 nM. In the experiment on Cryptosporidium parvum, the EC50 was more than 1 µM.
Take `CN(C(=O)c1ccn2ncc(-c3ccc(C(N)=O)cc3)c2c1)c1ccc(Cl)c(C(=O)OCc2cncs2)c1` [Example 1.07, Thiazol-5-ylmethyl 5-(3-(4-carbamoylphenyl)-N-methylpyrazolo[1,5-a]pyridine-5-carboxamido)-2-chlorobenzoate]: the IC50 at C. parvum PI(4)K is less than 100 nM. In addition, the half-maximal effective concentration (EC50) in the experiment on Cryptosporidium parvum fell in the range of 0.1 to 1 µM.
`CNC(=O)c1ccc(-c2cnn3ccc(C(=O)N(C)c4ccc(Cl)c(C(=O)OC(C)(C)C)c4)cc23)cc1` [Example 1.17, t-Butyl 2-chloro-5-(N-methyl-3-(4-(methylcarbamoyl)phenyl)pyrazolo[1,5-a]pyrdine-5-carboxamido)benzoate] yielded an IC50 against C. parvum PI(4)K of less than 100 nM. In the experiment with Cryptosporidium parvum, the EC50 is less than 0.1 µM.
For `CC(C)COC(=O)c1cc(N(C)C(=O)c2ccn3ncc(-c4ccc(C(N)=O)cc4)c3c2)ccc1Cl` [Example 1.05, Isobutyl 5-(3-(4-carbamoylphenyl)-N-methylpyrazolo[1,5-a]pyridine-5-carboxamido)-2-chlorobenzoate], in that order: less than 100 nM and 0.1 to 1 µM.
